Experimental data published in US9233989B2, “Sila analogs of oxazolidinone derivatives and synthesis thereof” (Council of Scientific & Industrial Research, priority 2011, dated 2016).
Values after ≈ are worked out from the molar mass of the structure shown.

What was measured:
S.aureus DB00026 = test: MIC by microbroth dilution method; assay type: cell-based
[1] = test system: S.aureus ATCC Newman 25904; test: MIC by microbroth dilution method; assay type: cell-based
S.epidermidis ATCC 12228 = test: MIC by microbroth dilution method; assay type: cell-based
MRSA DB 00026 = test: MIC by microbroth dilution method; assay type: cell-based, S. aureus
E.coli 7632 = test: MIC by microbroth dilution method; assay type: cell-based
S.epidermis St 358 = test: MIC by microbroth dilution method; assay type: cell-based, S. epidermidis
[2] = test system: S.aureus ATCC 13709 Smith; test: MIC by microbroth dilution method; assay type: cell-based
MRSA 252 BAA 1720 = test: MIC by microbroth dilution method; assay type: cell-based, S. aureus
MRSE ATCC 35984 = test: MIC by microbroth dilution method; assay type: cell-based, S. epidermidis
MRSA ATCC 43300 = test: MIC by microbroth dilution method; assay type: cell-based, S. aureus
[3] = test system: S.aureus ATCC 49775 PVL + ve; assay type: cell-based
[4] = test system: S.aureus 13709 LNZ mutant; assay type: cell-based
E.faecalis ATCC 19433 = test: MIC by microbroth dilution method; assay type: cell-based
MRSE ATCC 35983 = test: MIC by microbroth dilution method; assay type: cell-based, S. epidermidis
MRSA ATCC BAA 39 = test: MIC by microbroth dilution method; assay type: cell-based, S. aureus
[5] = test system: S.aureus ATCC 700699 Mu50; test: MIC by microbroth dilution method; assay type: cell-based
S.aureus ATCC 29213 = test: MIC by microbroth dilution method; assay type: cell-based
[6] = test system: Mycobacterium tuberculosis H37Rv; test: Anti-TB activity, colorimetric resazurin microtiter assay; assay type: cell-based; conditions: Mycobacterium tuberculosis, H37RV, read-out: MIC, Minimum Inhibitory Concentration (90%)
E.faecium 06076 VRE = test: MIC by microbroth dilution method; assay type: cell-based
E.faecalis ATCC 29212 = test: MIC by microbroth dilution method; assay type: cell-based
[7] = test system: E.faecalis ATCC 51299(VRE&HLAR); test: MIC by microbroth dilution method; assay type: cell-based
MRSA 0-2657 = test: MIC by microbroth dilution method; assay type: cell-based, S. aureus
MRSA 562 = test: MIC by microbroth dilution method; assay type: cell-based, S. aureus
E.faecium ATCC 19434 = test: MIC by microbroth dilution method; assay type: cell-based
S.aureus2 (PVL + ve) = assay type: cell-based, S. aureus
E.faecium ATCC 3567 = test: MIC by microbroth dilution method; assay type: cell-based
E.faecium ATCC 35667 = test: MIC by microbroth dilution method; assay type: cell-based
E.faecium ATCC 49224 = test: MIC by microbroth dilution method; assay type: cell-based
E.faecium 134 VRE = test: MIC by microbroth dilution method; assay type: cell-based
E.faecalis SP 346 VRE = test: MIC by microbroth dilution method; assay type: cell-based
S.epidermidis ATCC 14990 = test: MIC by microbroth dilution method; assay type: cell-based
E.faecium 6A VRE = test: MIC by microbroth dilution method; assay type: cell-based

`COC(=O)NC[C@H]1CN(c2ccc(N3CC[Si](C)(C)CC3)c(F)c2)C(=O)O1` [NDS-10061, (S)-methyl((3-(4-(4,4-dimethyl-1,4-azasilinan-1-yl)-3-fluorophenyl)-2-oxooxazolidin-5-yl)methyl)carbamate] gave an MIC (S.aureus DB00026) of 8 µg/mL (≈ 20.2 µM), an MIC [1] of 16 µg/mL (≈ 40.5 µM) and an MIC (S.epidermidis ATCC 12228) greater than 32 µg/mL. For the same molecule, the MIC (MRSA DB 00026) was 16 µg/mL (≈ 40.5 µM), the MIC (E.coli 7632) was 8 µg/mL (≈ 20.2 µM) and the MIC (S.epidermis St 358) was 32 µg/mL (≈ 80.9 µM). The MIC [2] was 8 µg/mL (≈ 20.2 µM), the MIC (MRSA 252 BAA 1720) was 16 µg/mL (≈ 40.5 µM) and the MIC (MRSE ATCC 35984) was 8 µg/mL (≈ 20.2 µM). It also gave an MIC (MRSA ATCC 43300) greater than 32 µg/mL, an MIC [3] of 16 µg/mL (≈ 40.5 µM) and an MIC [4] of 32 µg/mL (≈ 80.9 µM). The MIC (E.faecalis ATCC 19433) was 16 µg/mL (≈ 40.5 µM), the MIC (MRSE ATCC 35983) was 16 µg/mL (≈ 40.5 µM) and the MIC (MRSA ATCC BAA 39) was 16 µg/mL (≈ 40.5 µM). For the same molecule, the MIC [5] was 32 µg/mL (≈ 80.9 µM), the MIC (S.aureus ATCC 29213) was 16 µg/mL (≈ 40.5 µM) and the MIC [6] was 25 µg/mL (≈ 63.2 µM). For the same molecule, the MIC (E.faecium 06076 VRE) was 32 µg/mL (≈ 80.9 µM), the MIC (E.faecalis ATCC 29212) was 8 µg/mL (≈ 20.2 µM) and the MIC [7] was 32 µg/mL (≈ 80.9 µM). The MIC (MRSA 0-2657) was 16 µg/mL (≈ 40.5 µM), the MIC (MRSA 562) was 16 µg/mL (≈ 40.5 µM) and the MIC (E.faecium ATCC 19434) was 32 µg/mL (≈ 80.9 µM). It also gave an MIC (S.aureus2 (PVL + ve)) of 16 µg/mL (≈ 40.5 µM), an MIC (E.faecium ATCC 3567) of 32 µg/mL (≈ 80.9 µM) and an MIC (E.faecium ATCC 35667) of 16 µg/mL (≈ 40.5 µM). The MIC (E.faecium ATCC 49224) was 16 µg/mL (≈ 40.5 µM), the MIC (E.faecium 134 VRE) was 16 µg/mL (≈ 40.5 µM) and the MIC (E.faecalis SP 346 VRE) was 16 µg/mL (≈ 40.5 µM). For the same molecule, the MIC (S.epidermidis ATCC 14990) was 8 µg/mL (≈ 20.2 µM) and the MIC (E.faecium 6A VRE) was 32 µg/mL (≈ 80.9 µM).

Molecule `CC(=O)NC[C@H]1CN(c2cc(F)c(N3CC[Si](C)(C)CC3)c(F)c2)C(=O)O1` [NDS-10028, (S)—N-((3-(4-(4,4-dimethyl-1,4-azasilinan-1-yl)-3,5-difluorophenyl)-2-oxooxazolidin-5-yl)methyl)acetamide] has an MIC (S.aureus DB00026) greater than 32 µg/mL, an MIC [1] greater than 32 µg/mL and an MIC (S.epidermidis ATCC 12228) of 4 µg/mL (≈ 10.1 µM). It also gave an MIC (MRSA DB 00026) of 8 µg/mL (≈ 20.1 µM), an MIC (E.coli 7632) greater than 32 µg/mL and an MIC (S.epidermis St 358) of 8 µg/mL (≈ 20.1 µM). For the same molecule, the MIC [2] was 8 µg/mL (≈ 20.1 µM), the MIC (MRSA 252 BAA 1720) was greater than 32 µg/mL and the MIC (MRSE ATCC 35984) was 8 µg/mL (≈ 20.1 µM). For the same molecule, the MIC (MRSA ATCC 43300) was greater than 32 µg/mL, the MIC [3] was 16 µg/mL (≈ 40.3 µM) and the MIC [4] was greater than 16 µg/mL. The MIC (E.faecalis ATCC 19433) was 16 µg/mL (≈ 40.3 µM), the MIC (MRSE ATCC 35983) was 4 µg/mL (≈ 10.1 µM) and the MIC (MRSA ATCC BAA 39) was 8 µg/mL (≈ 20.1 µM). The MIC [5] was 8 µg/mL (≈ 20.1 µM), the MIC (S.aureus ATCC 29213) was greater than 16 µg/mL and the MIC [6] was greater than 50 µg/mL. For the same molecule, the MIC (E.faecium 06076 VRE) was 8 µg/mL (≈ 20.1 µM), the MIC (E.faecalis ATCC 29212) was 8 µg/mL (≈ 20.1 µM) and the MIC [7] was 8 µg/mL (≈ 20.1 µM). The MIC (MRSA 0-2657) was 8 µg/mL (≈ 20.1 µM), the MIC (MRSA 562) was 8 µg/mL (≈ 20.1 µM) and the MIC (E.faecium ATCC 19434) was 8 µg/mL (≈ 20.1 µM). For the same molecule, the MIC (S.aureus2 (PVL + ve)) was greater than 32 µg/mL, the MIC (E.faecium ATCC 3567) was 16 µg/mL (≈ 40.3 µM) and the MIC (E.faecium ATCC 35667) was 8 µg/mL (≈ 20.1 µM). It also gave an MIC (E.faecium ATCC 49224) of 8 µg/mL (≈ 20.1 µM), an MIC (E.faecium 134 VRE) of 8 µg/mL (≈ 20.1 µM) and an MIC (E.faecalis SP 346 VRE) of 8 µg/mL (≈ 20.1 µM). The MIC (S.epidermidis ATCC 14990) was 4 µg/mL (≈ 10.1 µM) and the MIC (E.faecium 6A VRE) was 4 µg/mL (≈ 10.1 µM).

For `C[Si]1(C)CCN(c2ccc(N3C[C@H](CO)OC3=O)cc2F)CC1` [NDS-10059, (R)-3-(4-(4,4-dimethyl-1,4-azasilinan-1-yl)-3-fluorophenyl)-5-(hydroxymethyl)oxazolidin-2-one], the MIC (S.aureus DB00026) was greater than 32 µg/mL, the MIC [1] was greater than 32 µg/mL and the MIC (S.epidermidis ATCC 12228) was greater than 32 µg/mL. The MIC (MRSA DB 00026) was greater than 32 µg/mL, the MIC (E.coli 7632) was 32 µg/mL (≈ 94.5 µM) and the MIC (S.epidermis St 358) was 32 µg/mL (≈ 94.5 µM). It also gave an MIC [2] greater than 32 µg/mL, an MIC (MRSA 252 BAA 1720) greater than 32 µg/mL and an MIC (MRSE ATCC 35984) of 32 µg/mL (≈ 94.5 µM). For the same molecule, the MIC (MRSA ATCC 43300) was greater than 32 µg/mL, the MIC [3] was 32 µg/mL (≈ 94.5 µM) and the MIC [4] was greater than 32 µg/mL. It also gave an MIC (E.faecalis ATCC 19433) greater than 32 µg/mL, an MIC (MRSE ATCC 35983) greater than 32 µg/mL and an MIC (MRSA ATCC BAA 39) greater than 32 µg/mL. It also gave an MIC [5] greater than 32 µg/mL, an MIC (S.aureus ATCC 29213) greater than 32 µg/mL and an MIC [6] of 100 µg/mL (≈ 295 µM). The MIC (E.faecium 06076 VRE) was greater than 32 µg/mL, the MIC (E.faecalis ATCC 29212) was 32 µg/mL (≈ 94.5 µM) and the MIC [7] was 32 µg/mL (≈ 94.5 µM). The MIC (MRSA 0-2657) was 32 µg/mL (≈ 94.5 µM), the MIC (MRSA 562) was greater than 32 µg/mL and the MIC (E.faecium ATCC 19434) was 32 µg/mL (≈ 94.5 µM). For the same molecule, the MIC (S.aureus2 (PVL + ve)) was greater than 32 µg/mL, the MIC (E.faecium ATCC 3567) was greater than 32 µg/mL and the MIC (E.faecium ATCC 35667) was greater than 32 µg/mL. For the same molecule, the MIC (E.faecium ATCC 49224) was greater than 32 µg/mL, the MIC (E.faecium 134 VRE) was 32 µg/mL (≈ 94.5 µM) and the MIC (E.faecalis SP 346 VRE) was 32 µg/mL (≈ 94.5 µM). The MIC (S.epidermidis ATCC 14990) was 32 µg/mL (≈ 94.5 µM) and the MIC (E.faecium 6A VRE) was greater than 32 µg/mL.
